Converted amounts (≈) assume the structure as drawn.
How the values were obtained:
[1] = system: HUVEC (human umbilical vein endothelial cells); experiment: Angiogenesis, tube formation on Matrigel; assay type: cell-based
Method: (§1) Test Substance and Concentration.
Cell Line and Culture Media.
Evaluation of anti-proliferation for test substances. Matrigel matrix was thawed, kept on ice at 4° C. and 50 μL transferred to each well of a 96-microwell tissue culture plate. The plate was incubated at 37° C. for at least one hour to allow the matrix solution to solidify before treatment.
(§2) Aliquots of 200 μl of (HUVEC) suspension (about 1.5×10^4 cells/well) were placed in 96-well microtiter plate. Two microliters of compound test solution or vehicle (40% DMSO) was then added per well in duplicate and incubated at 5% CO2 at 37° C. for 18 hours. The final concentration of DMSO was 0.4%. […] Failure to form continuous networks between cell bodies in the presence of test substance was photographed and scored as to the extent of tube disruption at a magnification of 40×. […] The minimum inhibitory concentration (MIC) was calculated to assess the effect of the test substance on angiogenesis.

[2] = system: angiogenesis in the animal; experiment: Treatment of animals, anti-angiogenic evaluation (Example 6); assay type: in vivo; details: contemplated; range of appropriate doses
Method: Frondoside A or B is evaluated for anti-angiogenic (e.g., for research, drug screening or therapeutic purposes) in live animals. Animals (e.g., having or modeling a disease characterized by unwanted angiogenesis) are treated with a range of appropriate doses of Frondoside A or B. Exemplary dosages and dosage schedules include, but are not limited to, those described herein.

[3] = system: HUVEC (human umbilical vein endothelial cells); experiment: Angiogenesis, tube formation on Matrigel, Frondoside B (Example 5); assay type: cell-based; details: concentrations in the range of 1 μM and greater; contemplated
Method: as §1
Cell Line and Culture Media. […] The culture medium used is Endothelial Cell Growth Medium with 10% fetal bovine serum, which is supplemented with 1% Antibiotic-Antimycotic.
Evaluation of anti-proliferation for test substances. Matrigel matrix is thawed, kept on ice at 4° C. and 50 μL transferred to each well of a 96-microwell tissue culture plate. The plate is incubated at 37° C. for at least one hour to allow the matrix solution to solidify before treatment.
as §2, with “are” for “were”, “is” for “was”

[4] = system: cancer cells; experiment: Anti-cancer / apoptotic promoting activity, method not described
[5] = system: PC-3 (human prostate adenocarcinoma); experiment: cells; details: for Percent Growth (Mean ± SEM, n = 2): 72-hour
Method: Test Substance and Concentration. Frondoside A (FAS) was dissolved in 100% DMSO and then diluted with sterile distilled water to obtain initial working solutions of 1000, 300, 100, 30, and 10 μM in 40% DMSO. […]
Cell Line and Culture Media. The tumor cell line PC-3 (human prostate adenocarcinoma), obtained from American Type Culture Collection (ATCC CRL-1435), was incubated in air atmosphere of 5% CO2 at 37° C. The culture medium used was F-12K Nutrient Mixture (Kaighn's Modification) with 3% fetal bovine serum, which was supplemented with 1% Antibiotic-Antimycotic.
Evaluation of anti-proliferation for test substances. Aliquots of 100 μl of cell suspension (about 2.5×10^3 cells/well) were placed in 96-well microtiter plates in an atmosphere of 5% CO2 at 37° C. […] Thus, the final concentration of DMSO was 0.4%. The Frondoside A was evaluated for possible inhibitory effects on cell proliferation at concentrations of 10, 3, 1, 0.3 and 0.1 μM. At the end of incubation, 20 μl of 90% alamarBlue reagent was added to each well for another 6-hour incubation before detection of cell viability by fluorescent intensity. Fluorescent intensity was measured using a Spectrafluor Plus plate reader with excitation at 530 nm and emission at 590 nm.
(§3) Determination of IC50, TGI and LC50. The measured results was calculated by the following formula: PG(%)=100%×(Mean Ftest−Mean Ftime0)/(Mean Fctrl−Mean Ftime0) If (Mean Ftest−Mean Ftime0)<0, then PG (%)=100%×(Mean Ftest−Mean Ftime0)/(Mean Ftime0−Mean Fblank) Where: • PG: percent growth • Mean Ftime0=The average of 2 measured fluorescent intensities of reduced alamarBlue at the time just before exposure of cells to the test substance. • Mean Ftest=The average of 2 measured fluorescent intensities of alamarBlue after 72-hour exposure of cells to the test substance. • Mean Fctrl=The average of 2 measured fluorescent intensities of alamarBlue after 72-hour incubation without the test substance. • Mean Fblank=The average of 2 measured fluorescent intensities of alamarBlue in medium without cells after 72-hour incubation.

[6] = system: DLD-1 (human colon adenocarcinoma); experiment: cells; details: for Percent Growth (Mean ± SEM, n = 2): 72-hour
Method: Test Substance and Concentration. Frondoside A (CBR-24) was dissolved in 100% DMSO and then diluted with sterile distilled water to obtain initial working solutions of 10000, 1000, 100, 10, and 1 μM in 40% DMSO. A 100-fold dilution was further made in culture media to generate final assay concentration of 100, 10, 1, 0.1 and 0.01 μM in 0.4% of DMSO.
Cell Line and Culture Media. The tumor cell line DLD-1 (human colon adenocarcinoma), obtained from American Type Culture Collection (ATCC CCL-221), was incubated in 95% air-5% CO2 gas mixture at 37° C. The culture medium used was RPMI 1640 with 10% fetal bovine serum, which was supplemented with 1% Antibiotic-Antimycotic.
Evaluation of anti-proliferation for test substances. Aliquots of 100 μl of cell suspension (about 2.5×10^3 cells/well) were placed in 96-well microtiter plates in an atmosphere of 5% CO2 at 37° C. […] Thus, the final concentration of DMSO was 0.4%. The Frondoside A was evaluated for possible inhibitory effects on cell proliferation at concentrations of 100, 10, 1, 0.1 and 0.01 μM. At the end of incubation, 20 μl of 90% alamarBlue reagent was added to each well for another 6 hour incubation before detection of cell viability by fluorescent intensity. Fluorescent intensity was measured using a Spectrafluor Plus plate reader with excitation at 530 nm and emission at 590 nm.
as §3, with “were” for “was”

`Cc1ccc(C(=O)Nc2ccc(S(=O)(=O)O)c3cc(S(=O)(=O)O)cc(S(=O)(=O)O)c23)cc1NC(=O)c1cccc(NC(=O)Nc2cccc(C(=O)Nc3cc(C(=O)Nc4ccc(S(=O)(=O)O)c5cc(S(=O)(=O)O)cc(S(=O)(=O)O)c45)ccc3C)c2)c1` [Suramin, reference compound] was tested, and the “inhibition of tube formation, standard reference agent” value ([1]; 10 μM) was “significant inhibition”, the inhibition at 0.3 µM ([1]; Homo sapiens, HUVEC, 0.3 μM, 18 hours, read-out: %, Inhibition of the total tube length (Mean ± SEM, n = 2)) was -1 ± 8% and the inhibition at 1 µM ([1]; Homo sapiens, HUVEC, 1 μM, 18 hours, read-out: %, Inhibition of the total tube length (Mean ± SEM, n = 2)) was -1 ± 7%. The inhibition at 3 µM ([1]; Homo sapiens, HUVEC, 3 μM, 18 hours, read-out: %, Inhibition of the total tube length (Mean ± SEM, n = 2)) was 20 ± 8%, the inhibition at 10 µM ([1]; Homo sapiens, HUVEC, 10 μM, 18 hours, read-out: %, Inhibition of the total tube length (Mean ± SEM, n = 2)) was 74% and the inhibition at 30 µM ([1]; Homo sapiens, HUVEC, 30 μM, 18 hours, read-out: %, Inhibition of the total tube length (Mean ± SEM, n = 2)) was 100%. The “MIC (Minimum Inhibitory Concentration)” value ([1]; tube formation, significant inhibition ≧30%) was 10 µM (≈ 13 µg/mL).
For “3 beta-O-{3-O-methyl-beta-D-glucopyranosyl-(1→3)-O-beta-D-6-sulfonatoglucopyranosyl-(1→4)-O-[beta-D-xylopyranosyl-(1→2)]-O-beta-D-quinovopyranosyl-(1→2)-O-beta-D-4-sulfonatoxylopyranosyl}-holost-7-ene sodium (or potassium) salt [Frondoside B]”, the “angiogenesis in the animal” value [2] was “inhibits angiogenesis”, the “inhibition of tube formation relative to the vehicle-treated controls” value [3] was “significant inhibition of tube formation” and the anti-cancer activity ([4]; no test described) was “showed anti-cancer activity”. The “apoptotic promoting activity in cancer cells” value ([4]; no test described for Frondoside B) was “apoptotic promoting activity”.
For `CO[C@@]12[C@H](COC(N)=O)C3=C(C(=O)C(C)=C(N)C3=O)N1C[C@@H]1N[C@@H]12` [Mitomycin, reference compound], the IC50 ([5]; Homo sapiens, read-out: IC50 (50% Inhibition Concentration)) was 130 nM, the “Percent Growth (Mean ± SEM, n = 2)” value ([5]; PC-3, 0.001 μM) was 103 ± 1% and the “Percent Growth (Mean ± SEM, n = 2)” value ([5]; PC-3, 0.01 μM) was 107 ± 1%. For the same compound, the “Percent Growth (Mean ± SEM, n = 2)” value ([5]; PC-3, 0.1 μM) was 35 ± 0%, the “Percent Growth (Mean ± SEM, n = 2)” value ([5]; PC-3, 1 μM) was 6 ± 1% and the “Percent Growth (Mean ± SEM, n = 2)” value ([5]; PC-3, 10 μM) was −77 ± 2%. For the same compound, the “TGI (Total Growth Inhibition)” value ([5]; PC-3, semi-quantitative, nonlinear regression) was 750 nM, the “activity of standard reference agent on PC-3 growth” value ([5]; at <10 mM) was “Significant activity” and the “Percent Growth (Mean ± SEM, n = 2)” value ([6]; DLD-1, 0.001 μM) was 96 ± 5%. The “Percent Growth (Mean ± SEM, n = 2)” value ([6]; DLD-1, 0.01 μM) was 83 ± 8%, the “Percent Growth (Mean ± SEM, n = 2)” value ([6]; DLD-1, 0.1 μM) was 66 ± 5% and the “Percent Growth (Mean ± SEM, n = 2)” value ([6]; DLD-1, 1 μM) was 31 ± 4%. The “Percent Growth (Mean ± SEM, n = 2)” value ([6]; DLD-1, 10 μM) was −11 ± 7%, the “TGI (Total Growth Inhibition)” value ([6]; DLD-1, semi-quantitative, nonlinear regression) was 5500 nM and the IC50 ([6]; Homo sapiens, DLD-1, read-out: IC50 (50% Inhibition Concentration)) was 330 nM. For the same compound, the “activity of positive control on DLD-1 growth” value ([6]; at <10 μM) was “Significant activity”.

— patent US7144867B2, “Anticancer glycoside compounds” (priority 2004, dated 2006)
